Structures can show the parent of a compound that is named as a salt. Marks after values point to notes of the source that are not given here. Values belong to the molecule of their own block, whether it stands above or below them.
Experiments:
AMPA receptors = test: Inhibition of AMPA induced spreading depression in isolated chicken retina; assay type: cell-based; details: AMPA (5 μM)
Description: (§1) In the first model the spreading depression caused by glutamate agonists (i.e., AMPA or kainate) was studied, while in the second one the transmembrane ion-current induced by the activation of the AMPA/kainate receptors was measured directly.
Inhibition of AMPA Induced “Spreading Depression” in Isolated Chicken Retina—
The AMPA antagonistic effect of the compounds of formula (I) or (II) was studied in the in vitro “spreading depression” model (Sheardown Brain Res. 607:189 (1993)). The AMPA antagonists prolong the latency of the development of the “spreading depression” caused by AMPA (5 μM).

AMPA/kainate receptors = test: Inhibition of AMPA induced whole-cell current in acutely isolated cerebellar Purkinje cells (patch clamp); assay type: cell-based; details: 5 μM AMPA, read-out: Inhibition of the ion-currents caused by 5 μM AMPA, IC50
Description: as §1
The activity of the compounds of the present invention was studied on acutely isolated cerebellar Purkinje cells by measuring the whole-cell current induced by 5 μM AMPA according for example to the method described by Bleakman et al (Neuropharmacology 12:1689 (1996)).

CD1 mice [1] = test: Anticonvulsant activity, maximal electroshock seizure (MES) test; assay type: in vivo; details: Mus musculus, po.
Description: (§2) The anti-seizure activity of some of the compounds of the present invention was measured using the electroshock test (J. Pharmacol. Exp. Ther. 106:319 (1952)) and the results are shown in Table 3. The spasmolytic activity of the compounds of the present invention was investigated by using e.g., pentetrazole (J. Pharmacol. Exp. Ther. 108:168 (1953)), strychnine (J. Pharmacol. Exp. Ther. 129:75 (1960)), bemegrid, nicotine, bicuculline, 4-aminopyridine and mercapto-propionic acid for inducing the clonic-tonic seizures and lethality. The investigated compounds were administered orally in three doses using 10 male CD1 mice/dose, usually 60 min before the induction of seizures.

CD1 mice [2] = test: Anticonvulsant activity, pentetrazole induced seizures; assay type: in vivo; details: Mus musculus; po.; read-out: Pentetrazol ED50
Description: as §2

CD1 mice [3] = test: Anticonvulsant activity, strychnine induced seizures; assay type: in vivo; details: Mus musculus; po.; read-out: Strychnine ED50
Description: as §2

CD1 mice [4] = test: Anticonvulsant activity, bemegride induced seizures; assay type: in vivo; details: Mus musculus; po.; read-out: Bemegride ED50
Description: as §2

CD1 mice [5] = test: Anticonvulsant activity, bicuculline induced seizures; assay type: in vivo; details: Mus musculus; po.; read-out: Bicuculline ED50
Description: as §2

CD1 mice [6] = test: Anticonvulsant activity, nicotine induced seizures; assay type: in vivo; details: Mus musculus; po.
Description: as §2

CD1 mice [7] = test: Anticonvulsant activity, 4-aminopyridine induced seizures; assay type: in vivo; details: Mus musculus; po.; read-out: 4-AP ED50
Description: as §2

CD1 mice [8] = test: Anticonvulsant activity, 3-mercapto-propionic acid induced seizures; assay type: in vivo; details: Mus musculus; po.; read-out: 3-MPA ED50
Description: as §2

CD1 mice [9] = test: Muscle relaxant activity, inclined screen test; assay type: in vivo; details: Mus musculus, ip
CD1 mice [10] = test: Muscle relaxant activity, rotarod test; assay type: in vivo; details: Mus musculus, ip
rats = test: Inhibition of focal ischemia, middle cerebral artery occlusion (MCAO) test; assay type: in vivo
Description: The focal anti-ischemic activity of the compounds of formula (I) or (II) of the present invention was measured by the “middle cerebral artery occlusion” (MCAO) test (Bartus Stroke 11:2265 (1994) and Sydserff et al, Brit. J. Pharmacol. 114:1631 (1995)). […] After a histological process (TTC staining) 24 h later, the infarcted area was determined by a computer assisted scanner program and was compared to the results obtained in a control group treated with the vehicle.

[11] = 1 h, 60 min before induction, read-out: MES (MES 60′) ED50

Structure (SMILES): C[C@@H]1Cc2cc3c(cc2C(c2ccc(N)cc2)=NN1c1nncs1)OCO3 [Example 84, (R)-5-(4-Aminophenyl)-8-methyl-7-(1,3,4-thiadiazol-2-yl)-8,9-dihydro-7H-1,3-dioxolo-[4,5-h][2,3]benzodiazepine]
IC50 (AMPA receptors): 850 nM
IC50 (AMPA/kainate receptors): 90 nM
ED50 (CD1 mice [1]; 0.5 h, 30′, read-out: MES 30′ ED50): 10 to 15 mg/kg
ED50 (CD1 mice [1]; [11]): 12.5 mg/kg
ED50 (CD1 mice [2]): 17.1 mg/kg
ED50 (CD1 mice [3]): 18.2 mg/kg
ED50 (CD1 mice [4]): 16.7 mg/kg
ED50 (CD1 mice [5]): 17 mg/kg
ED50 (CD1 mice [6]): 77.2 mg/kg
ED50 (CD1 mice [7]): 16.6 mg/kg
ED50 (CD1 mice [8]): 6.8 mg/kg
ED50 (CD1 mice [9]): 12.8 mg/kg
ED50 (CD1 mice [10]): 1.4 mg/kg
melting point: 219 to 220 °C

Structure (SMILES): CCc1nnc(N2N=C(c3ccc(N)cc3)c3cc4c(cc3C[C@H]2C)OCO4)s1 [Example 89, (R)-5-(4-Aminophenyl)-7-(5-ethyl-1,3,4-thiadiazol-2-yl)-8-methyl-8,9-dihydro-7H-1,3-dioxolo-[4,5-h][2,3]benzodiazepine]
ED50 (CD1 mice [1]; [11]): 10.5 mg/kg
ED50 (CD1 mice [2]): 11.5 mg/kg
ED50 (CD1 mice [3]): 15.7 mg/kg
ED50 (CD1 mice [4]): 11.2 mg/kg
ED50 (CD1 mice [5]): 17.1 mg/kg
ED50 (CD1 mice [6]): 45.9 mg/kg
ED50 (CD1 mice [7]): 14.3 mg/kg
ED50 (CD1 mice [8]): > 50 mg/kg
ED50 (CD1 mice [9]): 4.3 mg/kg
ED50 (CD1 mice [10]): 1.7 mg/kg
melting point: 142 to 144 °C

Structure (SMILES): Cc1nnc(N2N=C(c3ccc(N)cc3)c3cc4c(cc3C[C@H]2C)OCO4)o1 [Example 102, (R)-5-(4-Aminophenyl)-8-methyl-7-(5-methyl-1,3,4-oxadiazol-2-yl)-8,9-dihydro-7H-1,3-dioxolo-[4,5-h][2,3]benzodiazepine]
ED50 (CD1 mice [1]; [11]): 13.9 mg/kg
ED50 (CD1 mice [2]): 35.7 mg/kg
ED50 (CD1 mice [3]): 26.7 mg/kg
ED50 (CD1 mice [4]): 27.9 mg/kg
ED50 (CD1 mice [5]): 25.8 mg/kg
ED50 (CD1 mice [6]): 31.7 mg/kg
ED50 (CD1 mice [7]): 20.4 mg/kg
ED50 (CD1 mice [8]): > 50 mg/kg
ED50 (CD1 mice [9]): 14.8 mg/kg
ED50 (CD1 mice [10]): 2.9 mg/kg
melting point: 145 to 149 °C

melting point: 135 to 140 °C
Structure (SMILES): Cc1cc(C2=NN(c3nnc(CC#N)s3)[C@H](C)Cc3cc4c(cc32)OCO4)ccc1N [Example 173, (R)-5-(4-Amino-3-methylphenyl)-7-(5-cyanomethyl-1,3,4-thiadiazol-2-yl)-8-methyl-8,9-dihydro-7H-1,3-dioxolo[4,5-h][2,3]benzodiazepine]

melting point: 177 to 180 °C
Structure (SMILES): CSCc1nnc(N2N=C(c3ccc(N)c(C)c3)c3cc4c(cc3C[C@H]2C)OCO4)s1 [Example 174, (R)-5-(4-Amino-3-methylphenyl)-8-methyl-7-(5-methylthiomethyl-1,3,4-thiadiazol-2-yl)-8,9-dihydro-7H-1,3-dioxolo[4,5-h][2,3]benzodiazepine]

melting point: 135 to 140 °C
Structure (SMILES): CCOC(=O)c1nnc(N2N=C(c3ccc(N)c(C)c3)c3cc4c(cc3C[C@H]2C)OCO4)s1 [Example 175, (R)-5-(4-Amino-3-methylphenyl)-7-(5-ethoxycarbonyl-1,3,4-thiadiazol-2-yl)-8-methyl-8,9-dihydro-7H-1,3-dioxolo[4,5-h][2,3]benzodiazepine]

melting point: 139 to 140 °C
Structure (SMILES): Cc1cc(C2=NN(c3nnc(CN)s3)[C@H](C)Cc3cc4c(cc32)OCO4)ccc1N [Example 176, (R)-5-(4-Amino-3-methylphenyl)-7-(5-aminomethyl-1,3,4-thiadiazol-2-yl)-8-methyl-8,9-dihydro-7H-1,3-dioxolo[4,5-h][2,3]benzodiazepine]

melting point: 139 to 143 °C
Structure (SMILES): C/C=C/c1nnc(N2N=C(c3ccc(N)c(C)c3)c3cc4c(cc3C[C@H]2C)OCO4)s1 [Example 177, (R)-5-(4-Amino-3-methylphenyl)-8-methyl-7-{5-[1-(1E)-propen-1-yl]-1,3,4-thiadiazol-2-yl}-8,9-dihydro-7H-1,3-dioxolo[4,5-h][2,3]benzodiazepine]

melting point: 180 to 181 °C
Structure (SMILES): CCCCCCc1nnc(N2N=C(c3ccc(N)c(C)c3)c3cc4c(cc3C[C@H]2C)OCO4)s1 [Example 178, (R)-5-(4-Amino-3-methylphenyl)-7-(5-hexyl-1,3,4-thiadiazol-2-yl)-8-methyl-8,9-dihydro-7H-1,3-dioxolo[4,5-h][2,3]benzodiazepine]

melting point: 187 to 190 °C
Structure (SMILES): C[C@@H]1Cc2cc3c(cc2C(c2ccc(N)cc2)=NN1c1nnco1)OCO3 [Example 180, (R)-5-(4-Aminophenyl)-8-methyl-7-(1,3,4-oxadiazol-2-yl)-8,9-dihydro-7H-1,3-dioxolo[4,5-h][2,3]benzodiazepine]

melting point: 140 to 145 °C
Structure (SMILES): Cc1nnc(N2N=C(c3ccc(N)c(C)c3)c3cc4c(cc3C[C@H]2C)OCO4)o1 [Example 181, (R)-5-(4-Amino-3-methylphenyl)-8-methyl-7-(5-methyl-1,3,4-oxadiazol-2-yl)-8,9-dihydro-7H-1,3-dioxolo[4,5-h][2,3]benzodiazepine]

melting point: 105 to 109 °C
Structure (SMILES): COCc1nnc(N2N=C(c3ccc(N)c(Cl)c3)c3cc4c(cc3C[C@H]2C)OCO4)s1 [Example 183, (R)-5-(4-Amino-3-chlorophenyl)-8-methyl-7-(5-methoxymethyl-1,3,4-thiadiazol-2-yl)-8,9-dihydro-7H-1,3-dioxolo[4,5-h][2,3]benzodiazepine]

melting point: 220 to 221 °C
Structure (SMILES): C[C@@H]1Cc2cc3c(cc2C(c2ccc(N)cc2)=NN1c1cnns1)OCO3 [Example 186, (R)-5-(4-Aminophenyl)-8-methyl-7-(1,2,3-thiadiazol-5-yl)-8,9-dihydro-7H-1,3-dioxolo-[4,5-h][2,3]benzodiazepine]

melting point: 202 to 203 °C
Structure (SMILES): Cc1cc(C2=NN(c3nccs3)[C@H](C)Cc3cc4c(cc32)OCO4)cc(C)c1N [Example 189, (R)-5-(4-Amino-3,5-dimethylphenyl)-8-methyl-7-(thiazol-2-yl)-8,9-dihydro-7H-1,3-dioxolo-[4,5-h][2,3]benzodiazepine]

melting point: 280 to 281 °C
Structure (SMILES): Cc1nnc(N2N=C(c3cc(C)c(N)c(C)c3)c3cc4c(cc3C[C@H]2C)OCO4)s1 [Example 190, (R)-5-(4-Amino-3,5-dimethylphenyl)-8-methyl-7-(5-methyl-1,3,4-thiadiazol-2-yl)-8,9-dihydro-7H-1,3-dioxolo[4,5-h][2,3]benzodiazepine]

melting point: 148 to 150 °C
Structure (SMILES): Cc1nnc(N2N=C(c3cc(C)c(N)c(C)c3)c3cc4c(cc3C[C@H]2C)OCO4)o1 [Example 191, (R)-5-(4-Amino-3,5-dimethylphenyl)-8-methyl-7-(5-methyl-1,3,4-oxadiazol-2-yl)-8,9-dihydro-7H-1,3-dioxolo[4,5-h][2,3]benzodiazepine]

Structure (SMILES): CC1=NN=C(c2ccc(N)cc2)c2cc3c(cc2C1)OCO3 [GYKI 52466 HCl, 5-(4-aminophenyl)-8-methyl-9H-1,3-dioxolo[4,5-h][2,3]benzodiazepine, reference compound]
Decrease of the infracted area in % compared to that of the control (rats; 2 mg/kg iv. 6x in every 30 min, first treatment 120 min after occlusion): 39* %
Decrease of the infracted area in % compared to that of the control (rats; 5 mg/kg iv. 6x in every 30 min, first treatment 30 min after occlusion): 34* %
Decrease of the infracted area in % compared to that of the control (rats; 5 mg/kg iv. 6x in every 30 min, first treatment 120 min after occlusion): 47** %

Source: patent US20070027143A1, “Novel substituted 2,3-benzodiazepine derivatives” (priority 2003, published 2007)
